The record followed here is patent US20140155410A1 (GlaxoSmithKline LLC, priority 2008, published 2014).

One assay concerns the target T1, GST-tagged FAK (Homo sapiens, UniProt Q05397).
T1 construct: purchased Invitrogen PV3832
The assay is described as follows: Biochemical assay for FAK activity, Assay 1: phosphorylation of peptide substrate with radio-labeled ATP. Particulars: 5 μM ATP, 30 min pre-incubation; for IC50: read-out: Assay 1 FAK TRF PXC50 (converted). How it is done: GST-tagged (glutathione S-transferase-tagged) FAK was purchased from Invitrogen (PV3832) (www.invitrogen.com). […] To measure inhibitors of FAK, compounds were first prepared as a 10× stock in 10% DMSO. […] A 6-nM GST-FAK solution was prepared in 1.1× reaction buffer containing 44 mM HEPES, pH=7.2, 11 mM MgCl2, 2.2 mM MnCl2, 1.1 mM DTT and 0.011% Tween-20. Then, 20 μL of the 6 nM GST-FAK solution were pre-incubated with the compounds for 30 min at room temperature. […] The reaction was allowed to proceed for 90 min before being quenched with 40 μL of 1% H3PO4. A portion of the reaction mixture (60 μL) was transferred to a phospho-cellulose filter plate (Millipore; www.millipore.com, MAPHNOB50) and incubated for 20 minutes. The plate was filtrated, washed three times using 150 μL of 0.5% H3PO4 and dried at 50° C. for 30 min. After the addition of 60 μL Microscint-20 to the plate, radioactivity was measured using a TopCount (PerkinElmer; www.PerkinElmer.com).

Assay [1] concerns the target T2, Full length Human FAK (Flag-His-TEV-FAK1) (Homo sapiens, UniProt Q05397).
T2 construct: Full length Human FAK was expressed using baculovirus in Sf9 cells; made in house; host or cells: baculovirus in Sf9 cells
The assay is described as follows: Biochemical assay for FAK activity, Assay 2: LANCE Ultra ULight peptide phosphorylation, 665 nm/615 nm ratio. The following applies: Flag-His-TEV-FAK1, 10 μM ATP, 30 min pre-incubation; for IC50: read-out: Assay 2 FAK H 31284A TRF PXC50 (converted). How it is done: Flag-His-TEV-FAK1 was prepared in-house. Full length Human FAK was expressed using baculovirus in Sf9 cells with N-terminal FLAG-6×His tags followed by a TEV cleavage site (FLAG-6×His-TEV-huFAK). […] To measure inhibitors of FAK, compounds were first prepared as a 100× stock in 100% DMSO. […] After incubating for 120 minutes at room temperature, the reaction is quenched by adding 5 uL of 20 mM EDTA and 5nMEu-Anti-pTyr antibody in 1× LANCE detection buffer.
For orientation: In TR-FRET formats the signal depends on donor and acceptor labels being close together.

T1 sequence (Q05397 whole entry): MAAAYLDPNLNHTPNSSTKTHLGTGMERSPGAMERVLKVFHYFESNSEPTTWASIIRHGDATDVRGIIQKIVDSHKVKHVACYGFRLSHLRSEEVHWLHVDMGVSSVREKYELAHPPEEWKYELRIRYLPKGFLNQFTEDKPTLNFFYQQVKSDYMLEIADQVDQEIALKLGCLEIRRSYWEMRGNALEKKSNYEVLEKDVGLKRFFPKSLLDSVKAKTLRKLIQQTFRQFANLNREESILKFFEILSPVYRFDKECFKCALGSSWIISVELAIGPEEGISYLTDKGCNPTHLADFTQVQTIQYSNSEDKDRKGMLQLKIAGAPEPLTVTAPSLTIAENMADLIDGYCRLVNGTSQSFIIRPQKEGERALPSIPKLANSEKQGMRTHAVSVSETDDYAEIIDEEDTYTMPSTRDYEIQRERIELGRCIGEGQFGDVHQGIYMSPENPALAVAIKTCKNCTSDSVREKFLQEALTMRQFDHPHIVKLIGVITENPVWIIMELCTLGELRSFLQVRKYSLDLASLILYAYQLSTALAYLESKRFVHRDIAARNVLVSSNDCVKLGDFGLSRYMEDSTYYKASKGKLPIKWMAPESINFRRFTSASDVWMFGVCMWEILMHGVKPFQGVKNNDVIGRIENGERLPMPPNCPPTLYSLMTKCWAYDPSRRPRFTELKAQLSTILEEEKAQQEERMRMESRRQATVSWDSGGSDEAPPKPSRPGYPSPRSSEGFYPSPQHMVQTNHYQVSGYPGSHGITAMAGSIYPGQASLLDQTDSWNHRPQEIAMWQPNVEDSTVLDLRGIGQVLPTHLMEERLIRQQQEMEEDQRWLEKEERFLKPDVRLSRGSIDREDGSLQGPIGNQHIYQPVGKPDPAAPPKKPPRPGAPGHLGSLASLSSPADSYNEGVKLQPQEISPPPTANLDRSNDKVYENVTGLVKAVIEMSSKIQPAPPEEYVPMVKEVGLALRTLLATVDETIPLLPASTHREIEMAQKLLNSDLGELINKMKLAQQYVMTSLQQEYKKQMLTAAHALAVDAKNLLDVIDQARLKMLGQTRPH
T2 sequence (Q05397 whole entry): as above

In the case of “2-({5-Chloro-2-[(1-ethyl-1H-pyrazol-5-yl)amino]-4-pyridinyl}amino)-4,5-difluoro-N-methylbenzamide [Example 10]”, the “Assay 1 FAK TRF PXC50” value at GST-tagged FAK is recorded as 9.1. In assay [1], the “Assay 2 FAK H 31284A TRF PXC50” value was determined as 8.
As to `CCn1nccc1Nc1cc(Nc2ccc(Cl)cc2C(=O)NC)c(Cl)cn1` [Example 12, 5-Chloro-2-({5-chloro-2-[(1-ethyl-1H-pyrazol-5-yl)amino]-4-pyridinyl}amino)-N-methylbenzamide], the IC50 on GST-tagged FAK was 2.51 nM; in assay [1] it was 5.01 nM.
With `CNC(=O)c1ccccc1Nc1cc(Nc2cc(C)nn2C)ncc1Cl` [Example 5, 2-({5-Chloro-2-[(1,3-dimethyl-1H-pyrazol-5-yl)amino]-4-pyridinyl}amino)-N-methylbenzamide], the IC50 on GST-tagged FAK is 1 nM; in assay [1], 7.94 nM.
On to `CNC(=O)c1cc(N2CCN(CCO)CC2)ccc1Nc1cc(Cl)ncc1Cl` [Example 66, 2-[(2,5-Dichloro-4-pyridinyl)amino]-5-[4-(2-hydroxyethyl)-1-piperazinyl]-N-methylbenzamide], for which the IC50 at GST-tagged FAK is 2 nM; in assay [1], 31.6 nM.
Regarding `CNC(=O)c1ccccc1Nc1cc(Nc2ccnn2C2CCN(C)CC2)ncc1Cl` [Example 22, 2-[(5-Chloro-2-{[1-(1-methyl-4-piperidinyl)-1H-pyrazol-5-yl]amino}-4-pyridinyl)amino]-N-methylbenzamide], the results for the IC50 (on GST-tagged FAK; in assay [1]) were 31.6 nM and 251 nM, respectively.
The corresponding values for `CNC(=O)c1ccccc1Nc1cc(Nc2ccnn2C)ncc1Cl` [Example 2, 2-({5-Chloro-2-[(1-methyl-1H-pyrazol-5-yl)amino]-4-pyridinyl}amino)-N-methylbenzamide] are 1.58 nM and 10 nM.
As for `CNC(=O)c1ccccc1Nc1cc(Nc2cc(C)nn2CCN(C)C)ncc1Cl` [Example 23, 2-{[5-Chloro-2-({1-[2-(dimethylamino)ethyl]-3-methyl-1H-pyrazol-5-yl}amino)-4-pyridinyl]amino}-N-methylbenzamide], the IC50 on GST-tagged FAK was 79.4 nM; in assay [1], 200 nM.
Regarding `CCn1nccc1Nc1cc(Nc2ccccc2C(=O)NC)c(Cl)cn1` [Example 3, 2-({5-Chloro-2-[(1-ethyl-1H-pyrazol-5-yl)amino]-4-pyridinyl}amino)-N-methylbenzamide], the IC50 at GST-tagged FAK is 0.631 nM; in assay [1], 5.01 nM.
The corresponding values for `CNC(=O)c1ccccc1Nc1cc(Nc2cc(C)nn2CC(F)(F)F)ncc1Cl` [Example 21, 2-[(5-Chloro-2-{[3-methyl-1-(2,2,2-trifluoroethyl)-1H-pyrazol-5-yl]amino}-4-pyridinyl)amino]-N-methylbenzamide] are 3.16 nM and 63.1 nM.
`CCn1nccc1Nc1cc(Nc2ccccc2C(=O)NOC)c(Cl)cn1` [Example 40, 2-({5-Chloro-2-[(1-ethyl-1H-pyrazol-5-yl)amino]-4-pyridinyl}amino)-N-(methyloxy)benzamide]: the IC50 at GST-tagged FAK is 1.26 nM; in assay [1], 2.51 nM.
In the case of `CCNC(=O)c1ccccc1Nc1cc(Nc2cc(C)nn2C)ncc1Cl` [Example 43, 2-({5-Chloro-2-[(1,3-dimethyl-1H-pyrazol-5-yl)amino]-4-pyridinyl}amino)-N-ethylbenzamide], the IC50 was 5.01 nM on GST-tagged FAK and 25.1 nM in assay [1].
The corresponding values for `CCNC(=O)c1ccccc1Nc1cc(Nc2cc(C)nn2C(C)C)ncc1Cl` [Example 45, 2-[(5-Chloro-2-{[3-methyl-1-(1-methylethyl)-1H-pyrazol-5-yl]amino}-4-pyridinyl)amino]-N-ethylbenzamide] are 10 nM and 63.1 nM.
Turning to `CCn1nc(C(=O)NOC)cc1Nc1cc(Nc2ccccc2C(=O)NC)c(Cl)cn1` [Example 19, 5-{[5-Chloro-4-({2-[(methylamino)carbonyl]phenyl}amino)-2-pyridinyl]amino}-1-ethyl-N-(methyloxy)-1H-pyrazole-3-carboxamide], the results for the IC50 (at GST-tagged FAK; in assay [1]) were 5.01 nM and 63.1 nM, respectively.
